Data as given in ChEMBL document CHEMBL5325400 (Eur J Med Chem, 2023).
The source made the active and inactive calls. The rule behind the calls is not given here.

Key:
Tubulin (Sus scrofa) = Tubulin (Sus scrofa) (UniProt P02554+P02550); experiment: Inhibition of porcine brain tubulin polymerization at 10 uM measured at 1 min interval for 60 mins by fluorescence based analysis
A549 [1] = experiment: Residual cell migration in human A549 cells at 10 nM incubated for 12 hrs by crystal violet staining based transwell assay; conditions: A549, 12 h
[2] = Toxicity in BALB/c mouse xenografted with human A549 cells assessed as change in body weight at 10 mg/kg, ip administered every other day for 25 days; assay type: organism-based; conditions: in vivo, 600 h, time 25 day
A549 [3] = experiment: Induction of apoptosis in human A549 cells assessed as early apoptotic cells at 20 nM incubated for 24 hrs by annexin V-FITC/propidium iodide staining based flow cytometry analysis (reference value: 0.84%); assay type: functional
A549 [4] = experiment: Induction of cell cycle arrest in human A549 cells assessed as accumulation at G1 phase at 10 nM incubated for 24 hrs by PI staining based flow cytometry (Rvb= 65.68%); assay type: functional
A549 [5] = experiment: Antitumor activity against human A549 cells xenografted in BALB/c mouse assessed as upregulation of cleaved PARP expression in tumor at 10 mg/kg, ip administered every other day for 25 days by Western blotting analysis; assay type: functional, organism-based; conditions: time 25.0 day
Tubulin (Homo sapiens) = Tubulin (Homo sapiens) (UniProt P68371+Q9H4B7+P0DPH7+P68366+Q13509+Q71U36+P04350+Q3ZCM7+P07437+P68363+Q9BQE3+Q6PEY2+Q13885+Q9BVA1+Q9BUF5); experiment: Inhibition of tubulin polymerization in human A549 cells assessed as microtubule network polymerization at 100 nM measured after 18 hrs by Alexa Fluor 488 and DAPI staining based confocal microscopic analysis; assay type: cell-based
[6] = AUC(0 to infinity) in Sprague-Dawley rat at 1 mg/kg, iv by LC-MS analysis; assay type: ADME, organism-based; design: dose 1 mg/kg, route iv; conditions: in vivo
A549 [7] = experiment: Induction of apoptosis in human A549 cells assessed as viable cells at 40 nM incubated for 24 hrs by annexin V-FITC/propidium iodide staining based flow cytometry analysis (reference value: 96.44%); assay type: functional; conditions: read-out: Activity
A549 [8] = experiment: Induction of cell cycle arrest in human A549 cells assessed as accumulation at G1 phase at 20 nM incubated for 24 hrs by PI staining based flow cytometry (Rvb= 65.68%); assay type: functional
A549 [9] = experiment: Antitumor activity against human A549 cells xenografted in BALB/c mouse assessed as reduction in EGFR phosphorylation at S473 residue in tumor at 5 to 10 mg/kg, ip administered every other day for 25 days by Western blotting analysis; assay type: functional, organism-based; conditions: dose 5-10 mg/kg, time 25.0 day
[10] = Toxicity in BALB/c mouse assessed as adverse effect at 10 mg/kg, ip; assay type: organism-based; conditions: in vivo
B16-F10 [11] = experiment: Inhibition of cell migration in mouse B16-F10 cells assessed as total number of cells migrated at 20 nM incubated for 12 hrs by crystal violet staining based transwell assay (reference value: 692 +/- 11); assay type: functional
A549 [12] = experiment: Antiproliferative activity against human A549 cells expressing lentivirus RNAi VTI-96658 assessed as inhibition of cell growth measured after 48 hrs by MTT assay; assay type: functional, cell-based
A549 [13] = experiment: Induction of apoptosis in human A549 cells assessed as early apoptotic cells at 40 nM incubated for 24 hrs by annexin V-FITC/propidium iodide staining based flow cytometry analysis (reference value: 0.84%); assay type: functional
A549 [14] = experiment: Antitumor activity against human A549 cells xenografted in BALB/c mouse assessed as tumor weight at 5 mg/kg, ip administered every other day for 25 days; assay type: functional, organism-based; conditions: time 25.0 day
[15] = Toxicity in BALB/c nude mouse xenografted with human A549 cells assessed as pathological changes in heart at 5 to 10 mg/kg, ip administered every other day for 25 days by hematoxylin and eosin staining based microscopic analysis; assay type: organism-based; conditions: in vivo, 600 h, dose 5-10 mg/kg, time 25 day
Tubulin = experiment: Binding affinity to tubulin (unknown origin) assessed as dissociation constant by SPR analysis; assay type: protein-complex assay, Homo sapiens
A549 [16] = experiment: Induction of cell cycle arrest in human A549 cells assessed as accumulation at S phase at 10 nM incubated for 24 hrs by PI staining based flow cytometry (Rvb= 20.94%); assay type: functional
[17] = Toxicity in BALB/c mouse assessed as drug tolerability at 10 mg/kg, ip; assay type: organism-based; conditions: in vivo
A549 [18] = experiment: Inhibition of cell migration in human A549 cells assessed as total number of cells migrated at 20 nM incubated for 12 hrs by crystal violet staining based transwell assay (reference value: 724 +/- 16); assay type: functional
HeLa = experiment: Antiproliferative activity against human HeLa cells assessed as inhibition of cell growth measured after 48 hrs by MTT assay; assay type: functional, cell-based
B16-F10 [19] = experiment: Antimigratory activity against mouse B16-F10 cells assessed as inhibition of cell migration at 20 nM and incubated for 12 hrs by scratch wound healing assay (reference value: 81.9 +/- 0.64%); assay type: functional; design: scale not given: the % may be the effect or the level left
A549 [20] = experiment: Antiproliferative activity against human A549 cells assessed as inhibition of cell growth measured after 48 hrs by MTT assay; assay type: functional, cell-based; conditions: A549, 48 h
A549 [21] = experiment: Antimigratory activity against human A549 cells assessed as inhibition of cell migration at 5 nM and incubated for 12 hrs by scratch wound healing assay (reference value: 29.5 +/- 1.34%); assay type: functional; design: scale not given: the % may be the effect or the level left
A549 [22] = experiment: Residual cell migration in human A549 cells at 40 nM incubated for 12 hrs by crystal violet staining based transwell assay; conditions: A549, 12 h
A549 [23] = experiment: Antiproliferative activity against human A549 cells expressing lentivirus RNAi VTI-96660 assessed as inhibition of cell growth measured after 48 hrs by MTT assay; assay type: functional, cell-based
[24] = Clearance in Sprague-Dawley rat at 1 mg/kg, iv by LC-MS analysis; assay type: ADME, organism-based; conditions: in vivo
[25] = Toxicity in BALB/c nude mouse xenografted with human A549 cells assessed as pathological changes in spleen at 5 to 10 mg/kg, ip administered every other day for 25 days by hematoxylin and eosin staining based microscopic analysis; assay type: organism-based; conditions: in vivo, 600 h, dose 5-10 mg/kg, time 25 day
A549 [26] = experiment: Antitumor activity against human A549 cells xenografted in BALB/c mouse assessed as tumor growth inhibition at 5 mg/kg, ip administered every other day for 25 days; assay type: functional; conditions: A549, 600 h, time 25 day, read-out: TGI
A549 [27] = experiment: Induction of cell cycle arrest in human A549 cells assessed as accumulation at S phase at 20 nM incubated for 24 hrs by PI staining based flow cytometry (Rvb= 20.94%); assay type: functional
A2780 = experiment: cells; conditions: Homo sapiens, A2780, 48 h
Description: Antiproliferative activity against human A2780 cells assessed as inhibition of cell growth incubated for 48 hrs by MTT assay

A549 [28] = experiment: Inhibition of cell migration in human A549 cells assessed as total number of cells migrated at 5 nM incubated for 12 hrs by crystal violet staining based transwell assay (reference value: 724 +/- 16); assay type: functional
[29] = AUC(0 to t) in Sprague-Dawley rat at 1 mg/kg, iv by LC-MS analysis; assay type: ADME, organism-based; design: dose 1 mg/kg, route iv; conditions: in vivo
A549 [30] = experiment: Antitumor activity against human A549 cells xenografted in BALB/c mouse assessed as tumor growth inhibition at 10 mg/kg, ip administered every other day for 25 days; assay type: functional; conditions: A549, 600 h, time 25 day, read-out: TGI

Sequence of Tubulin (Sus scrofa) (P02550 whole entry, looked up): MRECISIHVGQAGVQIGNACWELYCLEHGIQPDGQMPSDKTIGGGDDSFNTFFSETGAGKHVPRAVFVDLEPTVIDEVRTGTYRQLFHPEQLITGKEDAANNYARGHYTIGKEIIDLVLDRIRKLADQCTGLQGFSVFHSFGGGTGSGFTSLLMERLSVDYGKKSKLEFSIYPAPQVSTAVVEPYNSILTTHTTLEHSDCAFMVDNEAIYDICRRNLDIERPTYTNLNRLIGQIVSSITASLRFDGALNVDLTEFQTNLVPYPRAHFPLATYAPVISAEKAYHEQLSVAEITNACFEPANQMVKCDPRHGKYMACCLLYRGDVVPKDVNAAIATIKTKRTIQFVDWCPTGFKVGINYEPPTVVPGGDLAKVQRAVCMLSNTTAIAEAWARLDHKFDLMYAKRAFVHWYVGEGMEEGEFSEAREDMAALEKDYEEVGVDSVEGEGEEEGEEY
Sequence of Tubulin (Sus scrofa) (P02554 whole entry, looked up): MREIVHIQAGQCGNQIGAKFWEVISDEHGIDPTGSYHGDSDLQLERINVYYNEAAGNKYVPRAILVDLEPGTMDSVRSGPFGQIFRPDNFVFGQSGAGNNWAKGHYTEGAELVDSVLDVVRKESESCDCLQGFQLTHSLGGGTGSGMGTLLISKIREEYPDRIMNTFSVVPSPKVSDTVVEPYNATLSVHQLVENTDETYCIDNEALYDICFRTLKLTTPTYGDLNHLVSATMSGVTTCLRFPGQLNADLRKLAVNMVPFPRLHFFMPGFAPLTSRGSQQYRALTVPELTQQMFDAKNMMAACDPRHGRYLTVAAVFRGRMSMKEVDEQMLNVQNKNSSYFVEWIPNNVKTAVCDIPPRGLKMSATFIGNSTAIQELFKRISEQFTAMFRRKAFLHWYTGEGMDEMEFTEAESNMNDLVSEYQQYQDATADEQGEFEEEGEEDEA

For `COc1cccc(Nc2cc(Nc3cccc(NC(=O)C4CC4)c3)ncn2)c1`, which inhibition (Tubulin (Sus scrofa)) is on record?
Its inhibition is “Active”.

What about the level, % of control at 0.01 µM (A549 [1]) of the same compound?
Its level, % of control at 0.01 µM is 70.6%.

And the Activity [2]?
The Activity was “Non-Toxic”.

What about the Activity (A549 [3]) of the same compound?
Its Activity is 1.69%.

And the Activity (A549 [4])?
The Activity was 58.47%.

What about the Activity (A549 [5]) of the same compound?
Its Activity is “Active”.

What about the inhibition (Tubulin (Homo sapiens)) of the same compound?
The inhibition was “Active”.

And the AUC [6]?
The AUC was 239.43 ng·h/mL.

And the viability at 0.04 µM (A549 [7])?
The viability at 0.04 µM was 63.6%.

And the Activity (A549 [8])?
The Activity was 48%.

What about the Activity (A549 [9]) of the same compound?
Its Activity is “inactive”.

And the Activity [10]?
The Activity was “Non-Toxic”.

What about the Activity (B16-F10 [11]) of the same compound?
The Activity was 319.

What about the Activity (A549 [12]) of the same compound?
The Activity was “Active”.

What about the Activity (A549 [13]) of the same compound?
The Activity was 3.86%.

What about the Activity (A549 [14]) of the same compound?
The Activity was “Active”.

What about the Activity [15] of the same compound?
The Activity was “Non-Toxic”.

And the Kd (Tubulin)?
The Kd was 43200 nM.

What about the Activity (A549 [16]) of the same compound?
Its Activity is 15.3%.

What about the Activity [17] of the same compound?
The Activity was “Non-Toxic”.

And the Activity (A549 [18])?
Its Activity is 397.

What about the IC50 (HeLa) of the same compound?
Its IC50 is 3.6 nM.

And the Activity (B16-F10 [19])?
Its Activity is 39.7%.

And the IC50 (A549 [20])?
The IC50 was 1.1 nM.

What about the Activity (A549 [21]) of the same compound?
Its Activity is 23.2%.

What about the level, % of control at 0.04 µM (A549 [22]) of the same compound?
Its level, % of control at 0.04 µM is 32.9%.

What about the Activity (A549 [23]) of the same compound?
Its Activity is “Active”.

And the clearance [24]?
Its clearance is 69.8 mL/min/kg.

And the Activity [25]?
Its Activity is “Non-Toxic”.

And the inhibition in vivo at 5 mg/kg (A549 [26])?
Its inhibition in vivo at 5 mg/kg is 39.1%.

What about the Activity (A549 [27]) of the same compound?
Its Activity is 15.49%.

What about the IC50 (A2780) of the same compound?
Its IC50 is 16 nM.

What about the Activity (A549 [28]) of the same compound?
Its Activity is 635.

And the AUC(0-t) [29]?
Its AUC(0-t) is 239 ng·h/mL.

And the inhibition in vivo at 10 mg/kg (A549 [30])?
Its inhibition in vivo at 10 mg/kg is 65.4%.
